Test results: BindingDB's records for doi:10.1016/j.bmc.2005.12.063 (Kyushu Institute of Technology, 2006)
Peptide text beside a SMILES is read from it.

Key:
Experiment in all cases: HDAC Enzyme Activity Assay
Conditions in all cases: pH 8; 37 °C
Histone deacetylase 4 = Histone deacetylase 4 (Homo sapiens, UniProt P56524)
Histone deacetylase 6 = target: T1, Histone deacetylase 6 (Mus musculus, UniProt Q9Z2V5)
T1 sequence (Q9Z2V5 whole entry): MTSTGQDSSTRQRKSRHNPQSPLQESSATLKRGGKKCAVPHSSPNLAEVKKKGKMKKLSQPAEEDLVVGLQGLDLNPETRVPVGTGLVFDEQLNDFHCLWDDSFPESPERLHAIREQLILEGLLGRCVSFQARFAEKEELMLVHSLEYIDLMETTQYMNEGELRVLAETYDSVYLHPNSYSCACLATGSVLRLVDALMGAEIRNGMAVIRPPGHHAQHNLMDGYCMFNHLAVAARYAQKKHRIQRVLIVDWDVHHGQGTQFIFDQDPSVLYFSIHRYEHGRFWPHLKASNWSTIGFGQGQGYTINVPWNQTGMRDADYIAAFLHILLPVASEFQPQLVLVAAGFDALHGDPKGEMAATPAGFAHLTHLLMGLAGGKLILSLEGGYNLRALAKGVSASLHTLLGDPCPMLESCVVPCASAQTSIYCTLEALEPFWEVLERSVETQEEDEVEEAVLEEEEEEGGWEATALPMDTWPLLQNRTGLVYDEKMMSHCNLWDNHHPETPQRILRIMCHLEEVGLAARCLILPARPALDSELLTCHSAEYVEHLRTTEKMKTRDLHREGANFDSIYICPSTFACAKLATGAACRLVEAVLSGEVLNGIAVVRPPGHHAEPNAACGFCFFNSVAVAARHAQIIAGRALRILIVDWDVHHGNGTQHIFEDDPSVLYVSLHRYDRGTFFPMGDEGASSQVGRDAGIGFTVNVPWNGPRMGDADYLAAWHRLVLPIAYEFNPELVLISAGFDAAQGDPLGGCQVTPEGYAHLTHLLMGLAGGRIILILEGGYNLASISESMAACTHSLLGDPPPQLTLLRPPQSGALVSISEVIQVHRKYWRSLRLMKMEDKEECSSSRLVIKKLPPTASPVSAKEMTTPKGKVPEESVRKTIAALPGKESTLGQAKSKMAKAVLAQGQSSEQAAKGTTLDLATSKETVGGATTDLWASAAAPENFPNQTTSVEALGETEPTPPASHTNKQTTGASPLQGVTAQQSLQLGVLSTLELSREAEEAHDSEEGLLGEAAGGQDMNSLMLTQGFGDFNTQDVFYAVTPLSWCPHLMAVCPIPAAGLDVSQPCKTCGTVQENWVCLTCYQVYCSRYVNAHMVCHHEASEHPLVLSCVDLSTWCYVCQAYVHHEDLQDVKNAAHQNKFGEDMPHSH

Histone deacetylase 1 = Histone deacetylase 1 (Homo sapiens, UniProt Q13547)
Histone deacetylase 1, sequence (Q13547 whole entry): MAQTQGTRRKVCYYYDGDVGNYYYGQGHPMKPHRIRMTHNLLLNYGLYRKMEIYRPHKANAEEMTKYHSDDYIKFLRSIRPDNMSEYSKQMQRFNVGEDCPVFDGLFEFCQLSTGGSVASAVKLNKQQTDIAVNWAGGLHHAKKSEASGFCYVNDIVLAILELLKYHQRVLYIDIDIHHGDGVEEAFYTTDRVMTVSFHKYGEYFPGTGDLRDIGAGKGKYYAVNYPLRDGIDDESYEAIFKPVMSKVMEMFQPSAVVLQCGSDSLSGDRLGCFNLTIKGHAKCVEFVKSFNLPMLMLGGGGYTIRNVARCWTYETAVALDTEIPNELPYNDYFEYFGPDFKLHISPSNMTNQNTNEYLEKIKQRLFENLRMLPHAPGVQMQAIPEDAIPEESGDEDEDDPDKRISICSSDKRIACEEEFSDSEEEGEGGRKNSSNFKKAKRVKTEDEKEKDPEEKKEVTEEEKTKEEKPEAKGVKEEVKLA

Histone deacetylase 4, sequence (P56524 whole entry): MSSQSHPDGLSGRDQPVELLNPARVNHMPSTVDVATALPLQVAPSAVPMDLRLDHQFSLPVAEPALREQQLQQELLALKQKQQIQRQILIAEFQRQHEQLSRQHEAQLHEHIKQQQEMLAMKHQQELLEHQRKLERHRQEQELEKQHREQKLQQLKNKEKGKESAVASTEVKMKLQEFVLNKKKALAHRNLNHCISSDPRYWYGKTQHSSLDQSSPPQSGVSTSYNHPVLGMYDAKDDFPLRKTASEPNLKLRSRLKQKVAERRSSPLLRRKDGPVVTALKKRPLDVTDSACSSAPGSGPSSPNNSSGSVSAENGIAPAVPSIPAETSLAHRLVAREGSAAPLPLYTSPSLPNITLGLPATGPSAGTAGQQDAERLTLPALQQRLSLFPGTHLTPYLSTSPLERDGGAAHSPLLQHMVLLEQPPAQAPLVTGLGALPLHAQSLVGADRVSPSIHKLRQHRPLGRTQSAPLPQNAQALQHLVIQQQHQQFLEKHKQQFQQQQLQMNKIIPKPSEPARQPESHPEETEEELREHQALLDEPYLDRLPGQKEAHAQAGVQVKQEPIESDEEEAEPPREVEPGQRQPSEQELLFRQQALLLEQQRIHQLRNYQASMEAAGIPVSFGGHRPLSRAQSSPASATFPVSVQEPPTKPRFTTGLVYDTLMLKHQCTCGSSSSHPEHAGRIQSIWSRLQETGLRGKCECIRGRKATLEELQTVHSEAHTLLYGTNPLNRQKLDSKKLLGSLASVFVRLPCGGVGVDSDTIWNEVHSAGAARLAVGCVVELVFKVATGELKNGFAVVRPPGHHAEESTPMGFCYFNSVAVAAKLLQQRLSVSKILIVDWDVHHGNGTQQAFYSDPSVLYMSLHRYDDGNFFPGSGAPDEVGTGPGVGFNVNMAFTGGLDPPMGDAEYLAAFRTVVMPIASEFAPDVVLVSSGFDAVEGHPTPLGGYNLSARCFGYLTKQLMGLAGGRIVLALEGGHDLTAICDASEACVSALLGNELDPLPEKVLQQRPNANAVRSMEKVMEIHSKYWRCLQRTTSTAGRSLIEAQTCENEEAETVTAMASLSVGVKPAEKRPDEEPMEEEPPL

SMILES	IC50 (Histone deacetylase 4) [µM]	IC50 (Histone deacetylase 6) [µM]	IC50 (Histone deacetylase 1) [µM]
CC1(C)NC(=O)[C@H](CCCCCC=O)NC(=O)[C@H]2CCCN2C(=O)[C@H](Cc2ccccc2)NC1=O [6-[(3S,9S,14aR)-9-benzyl-6,6-dimethyl-1,4,7,10-tetraoxo-tetradecahydropyrrolo[1,2-a][,,,]cyclododecan-3-yl]hexanal]	1.29	14.1	4.33
CC1(C)NC(=O)[C@H](CCCCCC(O)CO)NC(=O)[C@H]2CCCN2C(=O)[C@H](Cc2ccccc2)NC1=O (stereo partly drawn) [(3S,9S,14aR)-9-benzyl-3-(6,7-dihydroxyheptyl)-6,6-dimethyl-tetradecahydropyrrolo[1,2-a][,,,]cyclododecane-1,4,7,10-tetrone]	> 100	> 100	> 100
CC1(C)NC(=O)[C@H](CCCCCC(=O)CBr)NC(=O)[C@H]2CCCN2C(=O)[C@H](Cc2ccccc2)NC1=O [(3S,9S,14aR)-9-benzyl-3-(7-bromo-6-oxoheptyl)-6,6-dimethyl-tetradecahydropyrrolo[1,2-a][,,,]cyclododecane-1,4,7,10-tetrone]	0.0595		
CC1(C)NC(=O)[C@H](CCCCCC(=O)CO)NC(=O)[C@H]2CCCN2C(=O)[C@H](Cc2ccccc2)NC1=O [(3S,9S,14aR)-9-benzyl-3-(7-hydroxy-6-oxoheptyl)-6,6-dimethyl-tetradecahydropyrrolo[1,2-a][,,,]cyclododecane-1,4,7,10-tetrone]	0.0604	0.887	0.223
C=CCCCCC[C@@H]1NC(=O)[C@H]2CCCN2C(=O)[C@H](Cc2ccccc2)NC(=O)C(C)(C)NC1=O [(3S,9S,14aR)-9-benzyl-3-(hept-6-en-1-yl)-6,6-dimethyl-tetradecahydropyrrolo[1,2-a][,,,]cyclododecane-1,4,7,10-tetrone] (HELM PEPTIDE1{[Aib].F.[dP].[C=CCCCCC[C@H](N[*:1])C(=O)[*:2]]}$PEPTIDE1,PEPTIDE1,1:R1-4:R2$$$V2.0)	> 100	> 100	> 100
CC(=O)CCCCC[C@@H]1NC(=O)[C@H]2CCCN2C(=O)[C@H](Cc2ccccc2)NC(=O)C(C)(C)NC1=O [(3S,9S,14aR)-9-benzyl-6,6-dimethyl-3-(6-oxoheptyl)-tetradecahydropyrrolo[1,2-a][,,,]cyclododecane-1,4,7,10-tetrone]	0.29	3.7	1.08
CC1(C)NC(=O)[C@H](CCCCCC2CO2)NC(=O)[C@H]2CCCN2C(=O)[C@H](Cc2ccccc2)NC1=O (stereo partly drawn) [(3S,9S,14aR)-9-benzyl-6,6-dimethyl-3-[5-(oxiran-2-yl)pentyl]-tetradecahydropyrrolo[1,2-a][,,,]cyclododecane-1,4,7,10-tetrone]	4.05	> 100	4.69
